Results as given in US20260265238A1, “COMPOUNDS AND PHARMACEUTICAL COMPOSITIONS THAT DEGRADE SWI/SNF-RELATED MATRIX-ASSOCIATED ACTIN-DEPENDENT REGULATOR OF CHROMATIN SUBFAMILY A” (Plexium, Inc., priority 2023, published 2026).

How the values were obtained:
[1] = biological target: T1, SMARCA2-HiBiT HeLa cells (protein which is expressed from the SMARCA2 gene) (Homo sapiens, UniProt P51531); assay: SMARCA2 degradation assay (HiBiT-fusion HeLa cell line, 24 h, luminescence); format: cell-based
T1 construct: protein which is expressed from the SMARCA2 and SMARCA4 genes; host or cells: HeLa (SMARCA2-HiBiT engineered line)
In short: (§1)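 SMARCA2- or SMARCA4-HiBiT HeLa cells seeded overnight at 37° C, then given compound as a 10-point dilution (typically 10 μM to 300 pM) for 24 h at 37° C. Protein level read by HiBiT lytic detection luminescence; DC50 from dose-response curves; degradation also scored at 1 μM.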

[2] = biological target: T2, SMARCA4-HiBiT HeLa cells (protein which is expressed from the SMARCA4 gene) (Homo sapiens, UniProt P51532); assay: SMARCA4 degradation assay (HiBiT-fusion HeLa cell line, 24 h, luminescence); format: cell-based
T2 construct: protein which is expressed from the SMARCA2 and SMARCA4 genes; host or cells: HeLa (SMARCA4-HiBiT engineered line)
In short: as §1

T2 sequence (P51532 whole entry, the tested form may be a part): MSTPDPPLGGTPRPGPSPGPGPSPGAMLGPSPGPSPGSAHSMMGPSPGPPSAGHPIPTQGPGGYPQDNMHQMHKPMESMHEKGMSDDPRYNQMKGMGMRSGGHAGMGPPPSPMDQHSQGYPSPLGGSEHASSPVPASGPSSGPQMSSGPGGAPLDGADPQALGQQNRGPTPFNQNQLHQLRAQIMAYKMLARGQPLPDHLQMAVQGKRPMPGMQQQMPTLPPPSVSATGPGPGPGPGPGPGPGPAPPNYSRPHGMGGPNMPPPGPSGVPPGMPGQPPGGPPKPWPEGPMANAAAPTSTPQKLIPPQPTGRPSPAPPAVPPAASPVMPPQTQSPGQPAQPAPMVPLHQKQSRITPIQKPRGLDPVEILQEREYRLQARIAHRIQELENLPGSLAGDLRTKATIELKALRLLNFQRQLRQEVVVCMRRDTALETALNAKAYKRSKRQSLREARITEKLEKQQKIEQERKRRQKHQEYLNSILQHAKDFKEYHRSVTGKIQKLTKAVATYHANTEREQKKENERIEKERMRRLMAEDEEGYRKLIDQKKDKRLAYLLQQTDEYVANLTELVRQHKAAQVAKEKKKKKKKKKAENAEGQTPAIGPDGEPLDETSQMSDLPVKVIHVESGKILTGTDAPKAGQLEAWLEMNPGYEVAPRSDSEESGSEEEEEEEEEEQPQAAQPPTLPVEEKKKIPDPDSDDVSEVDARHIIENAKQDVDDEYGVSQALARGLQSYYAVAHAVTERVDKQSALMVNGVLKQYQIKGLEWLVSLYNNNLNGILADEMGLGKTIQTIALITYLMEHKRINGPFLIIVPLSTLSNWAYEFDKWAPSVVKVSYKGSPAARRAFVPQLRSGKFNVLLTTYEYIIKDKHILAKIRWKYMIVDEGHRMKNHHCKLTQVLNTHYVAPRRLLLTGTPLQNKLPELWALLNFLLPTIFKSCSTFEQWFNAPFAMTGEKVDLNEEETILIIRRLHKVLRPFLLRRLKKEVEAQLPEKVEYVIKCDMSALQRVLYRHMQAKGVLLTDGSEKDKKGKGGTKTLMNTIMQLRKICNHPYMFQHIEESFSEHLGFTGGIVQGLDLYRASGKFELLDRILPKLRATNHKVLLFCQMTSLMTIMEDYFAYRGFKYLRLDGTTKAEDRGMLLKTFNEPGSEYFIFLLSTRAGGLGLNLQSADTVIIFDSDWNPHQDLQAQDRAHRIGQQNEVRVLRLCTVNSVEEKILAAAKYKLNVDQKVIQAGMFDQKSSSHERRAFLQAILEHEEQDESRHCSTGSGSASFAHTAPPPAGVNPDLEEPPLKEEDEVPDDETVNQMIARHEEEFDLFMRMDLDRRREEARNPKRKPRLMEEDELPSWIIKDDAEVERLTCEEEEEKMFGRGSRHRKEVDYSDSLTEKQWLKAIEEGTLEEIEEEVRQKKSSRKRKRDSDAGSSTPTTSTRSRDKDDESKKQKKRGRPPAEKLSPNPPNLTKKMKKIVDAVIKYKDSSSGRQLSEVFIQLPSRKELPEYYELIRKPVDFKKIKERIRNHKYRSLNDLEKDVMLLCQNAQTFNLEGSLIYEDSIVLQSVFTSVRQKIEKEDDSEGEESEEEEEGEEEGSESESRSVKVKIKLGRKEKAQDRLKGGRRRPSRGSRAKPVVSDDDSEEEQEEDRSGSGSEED
T1 sequence (P51531 whole entry, the tested form may be a part): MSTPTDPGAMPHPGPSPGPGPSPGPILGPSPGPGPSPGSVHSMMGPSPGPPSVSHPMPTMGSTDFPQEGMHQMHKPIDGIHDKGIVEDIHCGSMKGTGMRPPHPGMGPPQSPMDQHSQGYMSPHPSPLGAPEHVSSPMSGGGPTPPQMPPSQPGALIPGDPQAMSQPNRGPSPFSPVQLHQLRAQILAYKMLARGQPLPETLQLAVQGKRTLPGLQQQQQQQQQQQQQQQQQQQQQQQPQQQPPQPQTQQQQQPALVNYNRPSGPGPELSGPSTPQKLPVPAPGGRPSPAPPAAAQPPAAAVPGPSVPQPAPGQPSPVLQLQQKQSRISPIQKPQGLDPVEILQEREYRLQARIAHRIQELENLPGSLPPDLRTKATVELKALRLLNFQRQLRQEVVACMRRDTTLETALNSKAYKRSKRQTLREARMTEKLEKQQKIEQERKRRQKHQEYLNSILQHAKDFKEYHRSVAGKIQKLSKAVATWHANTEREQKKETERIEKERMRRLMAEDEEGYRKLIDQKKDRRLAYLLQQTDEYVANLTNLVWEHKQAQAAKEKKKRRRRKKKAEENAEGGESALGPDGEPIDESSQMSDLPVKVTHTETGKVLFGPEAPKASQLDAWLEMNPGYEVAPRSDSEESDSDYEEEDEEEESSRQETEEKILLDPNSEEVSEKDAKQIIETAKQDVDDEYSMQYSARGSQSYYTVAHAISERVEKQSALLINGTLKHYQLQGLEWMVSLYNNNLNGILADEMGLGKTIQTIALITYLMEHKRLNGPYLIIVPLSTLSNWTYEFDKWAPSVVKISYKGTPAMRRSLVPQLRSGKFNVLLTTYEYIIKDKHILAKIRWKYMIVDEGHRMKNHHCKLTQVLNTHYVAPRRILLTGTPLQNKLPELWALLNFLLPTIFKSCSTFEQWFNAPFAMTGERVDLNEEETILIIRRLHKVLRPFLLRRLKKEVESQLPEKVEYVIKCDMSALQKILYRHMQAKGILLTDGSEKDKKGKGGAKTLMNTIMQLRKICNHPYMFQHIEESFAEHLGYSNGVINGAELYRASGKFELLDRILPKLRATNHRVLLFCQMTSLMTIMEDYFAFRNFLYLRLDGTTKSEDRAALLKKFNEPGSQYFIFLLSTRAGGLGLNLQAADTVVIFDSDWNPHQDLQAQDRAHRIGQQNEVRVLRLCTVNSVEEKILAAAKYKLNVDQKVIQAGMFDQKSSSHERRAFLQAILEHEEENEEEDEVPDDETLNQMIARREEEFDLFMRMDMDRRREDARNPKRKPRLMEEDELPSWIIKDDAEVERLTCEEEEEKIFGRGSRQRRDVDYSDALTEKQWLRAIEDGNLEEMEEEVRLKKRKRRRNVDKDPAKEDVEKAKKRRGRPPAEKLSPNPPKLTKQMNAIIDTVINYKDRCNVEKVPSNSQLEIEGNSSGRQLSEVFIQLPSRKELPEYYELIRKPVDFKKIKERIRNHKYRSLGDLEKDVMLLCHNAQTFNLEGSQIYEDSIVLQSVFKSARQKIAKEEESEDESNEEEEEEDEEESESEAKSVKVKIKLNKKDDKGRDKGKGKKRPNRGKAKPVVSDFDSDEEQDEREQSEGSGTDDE

SMILES	DC50 [1] [nM]	SMARCA2 % Degradation @ 1 μM [1]	DC50 [2] [nM]	inhibition at 1 µM [2] [%]
Nc1nnc(-c2ccccc2O)cc1N1CCCN(c2ccnc(C#CCN3C4CCC3CC(O)C4)n2)CC1 (centres unmarked) [Compound P-338, 8-[3-(4-{4-[3-amino-6-(o-hydroxyphenyl)-4-pyridazinyl]-1,4-diazepan-1-yl}-2-pyrimidinyl)-2-propynyl]-8-azabicyclo[3.2.1]octan-3-ol]	50 to 500	++ (++=30-70%)	50 to 500	< 30
Nc1nnc(-c2ccccc2O)cc1N1CCCN(c2ccnc(C#CCNC(=O)OCC(F)(F)F)n2)CC1 [Compound P-339, 6-(o-hydroxyphenyl)-4-(4-{2-[3-(2,2,2-trifluoroethoxycarbonylamino)-1-propynyl]-4-pyrimidinyl}-1,4-diazepan-1-yl)-3-pyridazinamine]	50 to 500	+++ (+++=>70%)	50 to 500	> 70
COCC#Cc1nccc(N2CCCN(c3cc(-c4ccccc4O)nnc3N)CC2)n1 [Compound P-342, 0-(6-amino-5-{4-[2-(3-mcthoxy-1-propynyl)-4-pyrimidinyl]-1,4-diazepan-1-yl}-3-pyridazinyl)phenol]	50 to 500	++ (++=30-70%)	50 to 500	30 to 70
CC(C)(C)OC(=O)N1CCCC1C#Cc1nccc(N2CCCN(c3cc(-c4ccccc4O)nnc3N)CC2)n1 (centres unmarked) [Compound P-348, tert-butyl 2-[2-(4-{4-[3-amino-6-(o-hydroxyphenyl)-4-pyridazinyl]-1,4-diazepan-1-y1}-2-pyrimidinyl)ethynyl]-1-pyrrolidinecarboxylate]	50 to 500	+++ (+++=>70%)	50 to 500	> 70
CN1CCCC1C#Cc1nccc(N2CCCN(c3cc(-c4ccccc4O)nnc3N)CC2)n1 (centres unmarked) [Compound P-350, 0-[6-amino-5-(4-{2-[2-(1-methyl-2-pyrrolidinyl)cthynyl]-4-pyrimidinyl}-1,4-diazepan-1-yl)-3-pyridazinyl]phenol]	50 to 500	+++ (+++=>70%)	50 to 500	> 70
CC(C)(C)OC(=O)N1CCC(C#Cc2nccc(N3CCCN(c4cc(-c5ccccc5O)nnc4N)CC3)n2)CC1 [Compound P-351, tert-butyl 4-[2-(4-{4-[3-amino-6-(o-hydroxyphenyl)-4-pyridazinyl]-1,4-diazepan-1-yl}-2-pyrimidinyl)ethynyl]-1-piperidinecarboxylate]	500 to 5000	++ (++=30-70%)	500 to 5000	30 to 70
CS(=O)(=O)N1CCC(C#Cc2nccc(N3CCCN(c4cc(-c5ccccc5O)nnc4N)CC3)n2)CC1 [Compound P-352, 0-[6-amino-5-(4-{2-[2-(1-mesyl-4-piperidyl)ethynyl]-4-pyrimidinyl}-1,4-diazepan-1-yl)-3-pyridazinyl]phenol]	500 to 5000	++ (++=30-70%)	500 to 5000	30 to 70
Cn1ccnc1C#Cc1nccc(N2CCCN(c3cc(-c4ccccc4O)nnc3N)CC2)n1 [Compound P-354]	500 to 5000	++ (++=30-70%)	500 to 5000	30 to 70

Next, values leading:

DC50 [1] [nM]	SMARCA2 % Degradation @ 1 μM [1]	DC50 [2] [nM]	inhibition at 1 µM [2] [%]	SMILES
50 to 500	+++ (+++=>70%)	50 to 500	> 70	Nc1nnc(-c2ccccc2O)cc1N1CCCN(c2ccnc(C#CCN3CCC(Cc4ccccc4)CC3)n2)CC1 [Compound P-337, 0-[6-amino-5-(4-{2-[3-(4-benzyl-1-piperidyl)-1-propynyl]-4-pyrimidinyl}-1,4-diazepan-1-yl)-3-pyridazinyl]phenol]
50 to 500	++ (++=30-70%)	50 to 500	30 to 70	Nc1nnc(-c2ccccc2O)cc1N1CCCN(c2ccnc(C#CC3CCOC3)n2)CC1 (centres unmarked) [Compound P-340, 0-[6-amino-5-(4-{2-[2-(tetrahydro-3-furyl)ethynyl]-4-pyrimidinyl}-1,4-diazepan-1-yl)-3-pyridazinyl]phenol]
500 to 5000	++ (++=30-70%)	500 to 5000	< 30	CC(C)(O)C#Cc1nccc(N2CCCN(c3cc(-c4ccccc4O)nnc3N)CC2)n1 [Compound P-341, 4-(4-{4-[3-amino-6-(0-hydroxyphenyl)-4-pyridaziny1]-1,4-diazepan-1-yl}-2-pyrimidinyl)-2-methyl-3-butyn-2-ol]
50 to 500	++ (++=30-70%)	50 to 500	30 to 70	C[C@H]1CN(c2cc(-c3ccccc3O)nnc2N)[C@@H](C)CN1c1ccnc(C#CCNC(=O)c2cc3ncccn3n2)n1 [Compound P-343, N-[3-(4-{(2S,5S)-4-[3-amino-6-(0-hydroxyphenyl)-4-pyridaziny1]-2,5-dimethyl-1-piperazinyl}-2-pyrimidinyl)-2-propynyl]-1,4,7a-triaza-2-indenecarboxamide]
< 50	++ (++=30-70%)	> 5000	–	CN(C)CC#Cc1nccc(N2CCC3(CC2)CCN(c2cc(-c4ccccc4O)nnc2N)C3)n1 [Compound P-344, 0-[6-amino-5-(8-{2-[3-(dimethylamino)-1-propynyl]-4-pyrimidinyl}-2,8-diaza-2-spiro[4.5]decyl)-3-pyridazinyl]phenol]
< 50	++ (++=30-70%)	< 50	30 to 70	C[C@@H]1CCN(c2cc(-c3ccccc3O)nnc2N)CCN1c1ccnc(C#CCN(C)C)n1 [Compound P-345, 0-{5-[(R)-4-{2-[3-(dimethylamino)-1-propynyl]-4-pyrimidinyl}-5-methyl-1,4-diazepan-1-y1]-6-amino-3-pyridazinyl}phenol]
500 to 5000	++ (++=30-70%)	500 to 5000	< 30	Cn1cc(C#Cc2nccc(N3CCCN(c4cc(-c5ccccc5O)nnc4N)CC3)n2)cn1 [Compound P-346, 0-[6-amino-5-(4-{2-[2-(1-methyl-4-pyrazolyl)ethynyl]-4-pyrimidinyl}-1,4-diazepan-1-yl)-3-pyridazinyl]phenol]
50 to 500	+++ (+++=>70%)	50 to 500	> 70	Nc1nnc(-c2ccccc2O)cc1N1CCCN(c2ccnc(C#CC3COC3)n2)CC1 [Compound P-347, 0-[6-amino-5-(4-{2-[2-(3-oxetanyl)ethynyl]-4-pyrimidinyl}-1,4-diazepan-1-yl)-3-pyridazinyl]phenol]
50 to 500	++ (++=30-70%)	50 to 500	30 to 70	CC(C)(C)OC(=O)N1CCC(F)(C#Cc2nccc(N3CCCN(c4cc(-c5ccccc5O)nnc4N)CC3)n2)CC1 [Compound P-349]
50 to 500	+++ (+++=>70%)	50 to 500	> 70	COC(=O)NCC#Cc1nccc(N2CCCN(c3cc(-c4ccccc4O)nnc3N)CC2)n1 [Compound P-353, 3-(4-{4-[3-amino-6-(o-hydroxyphenyl)-4-pyridaziny1]-1,4-diazepan-1-y1}-2-pyrimidinyl)-2-propynylaminomethylformylate]
